Where two headings read alike, the source gives them in different places. Bounds are passed on as bounds.

Our source for the IC50 values is patent US9387204B2, “Fused bicyclic imidazoles” (BAYER INTELLECTUAL PROPERTY GmbH, priority 2007, dated 2016).

The test system of one series is phospho-GSK3 (Ser9). The series can be described thus: Cellular pGSK3 assay (phospho-GSK3 ELISA). The format is cell-based. The settings on record: Homo sapiens, MCF7 cells, 48 h, read-out: Cellular pGSK3 pathway assay. The method, then: In order to study the cellular activity of the compounds according to the present invention, an ELISA-based assay has been established for the phosphorylated protein glycogen synthetase kinase 3 (GSK3). The assay is based on a solid phase sandwich ELISA that detects endogenous levels of phosphorylated GSK3 using a phospho-GSK3 (Ser9) specific antibody (BioSource International, Inc.; Catalog #KHO0461). After incubation with cell lysates, the coated antibody captures the phosphorylated GSK3 protein. Following extensive washing, GSK3 polyclonal antibody is added to detect the captured phospho-GSK3 protein. Secondary antibody (anti-rabbit IgG-HRP) is then used to recognize the bound detection antibody. After the second incubation and washing to remove all the excess anti-rabbit IgG-HRP, a substrate solution is added, which is acted upon by the bound enzyme to produce color. The intensity of this colored product is directly proportional to the concentration of GSK-3β [pS9] present in the original specimen.
MCF7 cells (ATCC HTB-22) were seeded into 96 well fate bottom plates at a density of 10000 cells/well. […] Cells were harvested and lysed in cell extraction buffer (10 mM Tris, pH 7.4, 100 mM NaCl, 1 mM EDTA, 1 mM EGTA, 1 mM NaF, 20 mM Na4P2O7, 2 mM Na3VO4, 1% Triton X-100, 10 vol % glycerol, 0.1 vol % SDS, 0.5 vol % deoxycholate, 1 mM phenylmethylsulfonylfluorid (PMSF)). The lysate were centrifuged for 10 min. at 4° C. and the supernatant were transferred to a new tube. 50 μl of sample diluent (standard diluent buffer, Biosource) were added and 100 μl of cell lysate transferred into the tube and vortexed. 100 μl of each diluted cell lysate were added to the appropriate ELISA well plate and incubated for 3 h at room temperature. The plates were washed 4 times with 1× wash buffer (Biosource). 50 μl of detection antibody (GSK3 (Ser9) detection antibody; BioSource) were added to each well and incubated for 30 min. at room temperature. The washing procedure was repeated between each step. 100 μl of HRP-linked secondary antibody (anti-mouse IgG HRP-linked antibody) were added to each well and incubated for 30 min. at room temperature. 100 μl of TMB substrate (0.05 vol % 3,3′,5,5′ tetramethylbenzidine, 0.1 vol % hydrogen peroxide, complex polypeptides in a buffered solution; Biosource) were added to each well and incubated for 30 min. at room temperature. Finally 100 μl of Stop solution (0.05 vol % α and β unsaturated carbonyl compound) were added to each well and the plate were shaked gently for a few seconds. The absorbance was measured at ? 450 nm (Wallac Victor2; Perkin Elmer, USA) within 30 min. after adding the stop solution.
The analysis of the data was performed using a statistical program (Excel; Microsoft, USA) and the IC50 of pGSK3 inhibition was determined.
(In general: ELISA stands for enzyme-linked immunosorbent assay.)

The subject of another series is OvCAR3 cells. Put plainly: Cellular proliferation/cytotoxicity assay (Alamar Blue), OvCAR3 cells. The format is cell-based. The settings on record: Homo sapiens, OVCAR-3, 72 h, Alamar Blue (Resazurin), read-out: Anti-proliferative/Cytotoxic activity (OvCAR3 cells). The text has this: Viabilities are expressed as % values.
(The colour change of resazurin is a common sign of viable cells or microbes.)

The test system of series [1] is A549 cells. The series can be described thus: Cellular proliferation/cytotoxicity assay (Alamar Blue), A549 cells. To be noted: Homo sapiens, A549, 72 h, read-out: Anti-proliferative/Cytotoxic activity (A549 cells).
The next series relates to phospho-Akt (Ser473). Put plainly: Cellular PI3K/Akt pathway assay (phospho-Akt ELISA). The class given is cell-based. To be noted: MCF7 cells, β-Heregulin stimulated, 48 h, phospho-Akt1 (Ser473) ELISA. The method, then:
In order to study the cellular activity of the compounds according to the present invention, an Enzyme Linked Immunosorbent Assay (ELISA)-based assay has been used specific phospho-AKT. The assay is based on a Sandwich ELISA kit (PathScan™ Phospho-Akt1 (Ser473); Cell Signaling, USA; #7160).
The ELISA Kit detects endogenous levels of phosphorylated Akt protein. A phospho-Akt (Ser473) antibody (Cell Signaling, USA; #9271) has been coated onto the microwells. After incubation with cell lysates, the coated antibody captures the phosphorylated Akt protein. Following extensive washing, Akt1 monoclonal antibody (Cell Signaling, USA; #2967) is added to detect the captured phospho-Akt1 protein. HRP-linked anti-mouse antibody (HRP: horseradish peroxidase; Cell Signaling, USA; #7076) is then used to recognize the bound detection antibody. HRP substrate (=3,3′,5,5′-tetramethylbenzidine (TMB); Cell Signaling, USA; #7160) is added to develop colour. The magnitude of optical density for this developed color is proportional to the quantity of phosphorylated Akt protein. MCF7 cells (ATCC HTB-22) are seeded into 96 well fate bottom plates at a density of 10000 cells/well. 24 hours after seeding, the cells are serum starved using low-serum medium (IMEM media including 0.1% charcoal treated FCS (FCS: fetal calf serum)). […] To stimulate Akt phosphorylation, β-Heregulin (20 ng/ml β-HRG) is added in parallel to the compounds. Wells containing unstimulated control cells (no β-Heregulin stimulation) are incubated with or without the diluted compound. Wells containing untreated control cells (no compound) are filled with medium containing 0.5% v:v DMSO and are or are not stimulated with β-Heregulin.
Cells are harvested and lysed with brief sonification in 1× cell lysis buffer (20 mM Tris (pH7.5), 150 mM NaCl, 1 mM ethylene diaminetetraacetate (EDTA), 1 mM ethylene glycolbis(2-aminoethyl)-N,N,N′,N′-tetraacetic acid (EGTA), 1 vol % Triton X-100, 2.5 mM sodium pyrophosphate, 1 mM β-glycerolphosphate, 1 mM Na3VO4, 1 μg/ml leupeptin). The lysate is centrifuged for 10 min. at 4° C. and the supernatant is transferred to a new tube. 100 μl of sample diluent (0.1 vol % Tween-20, 0.1 vol % sodium azide in phosphate buffered saline (PBS)) are added to a microcentrifuge tube and 100 μl of cell lysate are transferred into the tube and vortexed. 100 μl of each diluted cell lysate are added to the appropriate ELISA well, and incubated overnight at 4° C. The plates are washed 4 times with 1× wash buffer (1 vol % tween-20, 0.33 vol % thymol, in PBS). Next 100 μl of detection antibody (Akt1 (2H10) monoclonal detection antibody; Cell Signaling, USA; #2967) are added to each well and incubation continued for 1 h at 37° C. The washing procedure is repeated between each step. 100 μl of secondary antibody (anti-mouse IgG HRP-linked antibody; Cell Signaling, USA; #7076) are added to each well and incubated for 30 min. at 37° C. Than, 100 μl of TMB substrate (0.05% 3,3′,5,5′ tetramethylbenzidine, 0.1% hydrogen peroxide, complex polypeptides in a buffered solution; Cell Signaling, USA; #7160) are added to each well and incubated for 30 min. at 25° C. Finally 100 μl of STOP solution (0.05 vol % α and β unsaturated carbonyl compound) are added to each well and the plate are shaked gently. The absorbance is measured at ? 450 nm (Wallac Victor2; Perkin Elmer, USA) within 30 min. after adding the STOP solution. The analysis of the data is performed using a statistical program (Excel; Microsoft, USA). Preferred compounds show an inhibitory activity towards Akt phosphorylation below 10 μM.

Series [2] deals with A549 cells.

Consider `c1ccc(-c2nc(C3CCN(Cc4ccc(-c5nc6sccn6c5-c5nccs5)cc4)CC3)n[nH]2)nc1` [Example 42, 6-(4-{[4-(5-pyridin-2-yl-1,2,4-triazol-3-yl)piperidin-1-yl]methyl}phenyl)-5-(1,3-thiazol-2-yl)imidazo[2,1-b][1,3]thiazole], for which the IC50 with phospho-GSK3 (Ser9) is over 10 µM; in the series on OvCAR3 cells it was under 10 µM; in the series on A549 cells [1], under 10 µM.

Consider `Fc1ccccc1-c1c(-c2ccc(CN3CCC(c4n[nH]c(-c5ccccn5)n4)CC3)cc2)nc2ncccn12` [Example 41, 3-(2-fluorophenyl)-2-(4-{[4-(5-pyridin-2-yl-1,2,4-triazol-3-yl)piperidin-1-yl]methyl}phenyl)imidazo[1,2-a]pyrimidine], for which the IC50 is 1 to 10 µM in the series with phospho-GSK3 (Ser9), under 10 µM in the series on OvCAR3 cells and over 10 µM in the series with A549 cells [1].

`Fc1cc(F)c2nc(-c3ccc(CN4CCC(c5nnc(-c6ccccn6)[nH]5)CC4)cc3)c(-c3ccccc3)n2c1` [Example 44, 6,8-Difluoro-3-phenyl-2-{4-[4-(5-pyridin-2-yl-4H-[1,2,4]triazol-3-yl)-piperidin-1-ylmethyl]-phenyl}-imidazo[1,2-a]pyridine]: the IC50 in the series with phospho-Akt (Ser473) (Homo sapiens) was under 1 µM; in the series with phospho-GSK3 (Ser9) it was 1 to 10 µM; in the series with OvCAR3 cells, under 10 µM; with A549 cells [1] it was over 10 µM.

In the case of `N#Cc1cccn2c(-c3ccccc3)c(-c3ccc(CN4CCC(c5nnc(-c6cccs6)[nH]5)CC4)cc3)nc12` [Example 98, ′3-phenyl-2-[4-({4-[5-(2-thienyl)-4H-1,2,4-triazol-3-yl]piperidin-1-yl}methyl)phenyl]imidazo[1,2-a]pyridine-8-carbonitrile], the IC50 in the series with phospho-Akt (Ser473) is under 1 µM; in the series with A549 cells [2], over 10 µM.

In the case of `Cc1ccc(-c2nnc(C3CCN(Cc4ccc(-c5nc6c(C#N)cccn6c5-c5ccccc5)cc4)CC3)[nH]2)nc1` [Example 71, ′2-[4-({4-[5-(5-methylpyridin-2-yl)-4H-1,2,4-triazol-3-yl]piperidin-1-yl}methyl)phenyl]-3-phenylimidazo[1,2-a]pyridine-8-carbonitrile], the IC50 in the series with phospho-Akt (Ser473) is under 1 µM; in the series with A549 cells [2], under 10 µM.

Regarding `N#Cc1cccn2c(-c3ccccc3)c(-c3ccc(CN4CCC(c5nnc(-c6ccc[nH]6)[nH]5)CC4)cc3)nc12` [Example 105, ′3-phenyl-2-[4-({4-[5-(1H-pyrrol-2-yl)-4H-1,2,4-triazol-3-yl]piperidin-1-yl}methyl)phenyl]imidazo[1,2-a]pyridine-8-carbonitrile], the IC50 in the series on phospho-Akt (Ser473) was under 1 µM; in the series with A549 cells [2], under 10 µM.

On to `Cc1cn2c(-c3ccccc3)c(-c3ccc(CN4CCC(c5nnc(-c6ccccn6)[nH]5)CC4)cc3)nc2s1` [Example 46, 2-methyl-5-phenyl-6-[4-({4-[5-(pyridin-2-yl)-4H-1,2,4-triazol-3-yl]piperidin-1-yl}methyl)phenyl]imidazo[2,1-b][1,3]thiazole], for which the IC50 was under 1 µM in the series with phospho-Akt (Ser473) (Homo sapiens), 1 to 10 µM in the series on phospho-GSK3 (Ser9) and under 10 µM with A549 cells [1].
